Results: ChEMBL document CHEMBL4811278, “Discovery of novel modulators for the PPARα (peroxisome proliferator activated receptor α): Potential therapies for nonalcoholic fatty liver disease” (Bioorg Med Chem, 2021)
Active and inactive are the calls of the source. The rule behind the calls is not given here.

Key:
[1] = Toxicity in C57BL/6J mouse assessed as reduction in body weight measured after 72 hrs; settings: in vivo
[2] = test system: Mus musculus; assay: Hypolipidemic activity in high fat diet-induced nonalcoholic steatohepatitis C57BL/6J mouse model assessed as reduction in plasma free fatty acid level at 3 mg/kg, po administered once daily via gavage for 7 days; assay type: functional; settings: 168 h, time 7 day
[3] = target: T1, Peroxisome proliferator-activated receptor alpha (Mus musculus) (UniProt P23204); assay: In vivo agonist activity at PPARalpha in high fat diet-induced nonalcoholic steatohepatitis C57BL/6J mouse model assessed as increase in Cyp4a3 mRNA expression in liver administered at 3 mg/kg, po and measured after 24 hrs by quantitative real time PCR analysis; assay type: functional, organism-based
T1 sequence (whole entry): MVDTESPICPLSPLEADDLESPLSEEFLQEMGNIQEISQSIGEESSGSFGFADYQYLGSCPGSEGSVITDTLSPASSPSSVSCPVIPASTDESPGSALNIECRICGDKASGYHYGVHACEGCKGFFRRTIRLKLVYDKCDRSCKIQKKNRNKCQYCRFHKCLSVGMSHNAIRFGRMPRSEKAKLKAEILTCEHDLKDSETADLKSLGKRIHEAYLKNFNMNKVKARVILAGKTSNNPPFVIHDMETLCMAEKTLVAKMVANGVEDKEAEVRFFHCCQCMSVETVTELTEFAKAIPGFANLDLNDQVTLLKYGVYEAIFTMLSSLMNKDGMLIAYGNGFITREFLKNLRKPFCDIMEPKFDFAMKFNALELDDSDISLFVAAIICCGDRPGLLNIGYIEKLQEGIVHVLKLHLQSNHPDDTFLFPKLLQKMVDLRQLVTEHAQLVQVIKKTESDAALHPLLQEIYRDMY

[4] = test system: Mus musculus; assay: Hypolipidemic activity in high fat diet-induced nonalcoholic steatohepatitis C57BL/6J mouse model assessed as reduction in fat droplets in liver at 3 mg/kg, po administered once daily for 1 week by Oil Red O staining based assay; assay type: functional, organism-based; settings: time 1.0 weeks
[5] = test system: Mus musculus; assay: Hypolipidemic activity in high fat diet-induced nonalcoholic steatohepatitis PPARalpha knockout C57BL/6J mouse model assessed as reduction in plasma triglyceride levels at 3 mg/kg, po measured after 72 hrs; assay type: functional, organism-based
[6] = test system: Mus musculus; assay: Hypolipidemic activity in high fat diet-induced nonalcoholic steatohepatitis C57BL/6J mouse model assessed as reduction in lipid accumulation in liver at 3 mg/kg, po administered once daily for 1 week by Oil Red O staining based assay; assay type: functional, organism-based; settings: time 1.0 weeks
[7] = target: T1, Peroxisome proliferator-activated receptor alpha (Mus musculus); assay: In vivo agonist activity at PPARalpha in high fat diet-induced nonalcoholic steatohepatitis C57BL/6J mouse model assessed as increase in LPL mRNA expression in liver administered at 3 mg/kg, po administered once daily for 7 days by quantitative real time PCR analysis; assay type: functional, organism-based; settings: time 7.0 day
[8] = target: T1, Peroxisome proliferator-activated receptor alpha (Mus musculus); assay: In vivo agonist activity at PPARalpha in high fat diet-induced nonalcoholic steatohepatitis C57BL/6J mouse model assessed as increase in ACOX1 mRNA expression in liver administered at 3 mg/kg, po administered once daily for 7 days by quantitative real time PCR analysis; assay type: functional, organism-based; settings: time 7.0 day
[9] = target: T2, Peroxisome proliferator-activated receptor delta (Homo sapiens, UniProt Q03181); assay: Agonist activity at Gal4-fused human PPARdelta expressed in monkey CV1 cells assessed as receptor transactivation incubated for 45 hrs by luciferase reporter gene assay; assay type: cell-based, CV-1
T2 sequence (Q03181 whole entry): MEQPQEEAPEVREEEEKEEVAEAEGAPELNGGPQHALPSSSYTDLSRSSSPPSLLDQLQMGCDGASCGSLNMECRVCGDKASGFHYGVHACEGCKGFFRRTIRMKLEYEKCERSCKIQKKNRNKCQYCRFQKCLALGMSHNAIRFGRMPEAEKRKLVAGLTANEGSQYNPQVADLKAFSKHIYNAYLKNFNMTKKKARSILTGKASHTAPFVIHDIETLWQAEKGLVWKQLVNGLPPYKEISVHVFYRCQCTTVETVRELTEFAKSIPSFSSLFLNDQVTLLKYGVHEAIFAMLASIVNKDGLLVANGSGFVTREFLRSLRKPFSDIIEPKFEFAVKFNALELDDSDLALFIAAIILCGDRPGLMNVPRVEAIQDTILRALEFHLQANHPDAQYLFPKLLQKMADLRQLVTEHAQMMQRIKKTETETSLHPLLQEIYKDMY

[10] = Toxicity in C57BL/6J mouse assessed as reduction in body weight measured after 24 hrs; settings: in vivo

SMILES: COc1ccc(Cn2c(CCCc3ccc(OC(C)(C)C(=O)O)cc3)nn(Cc3ccc(C)cc3)c2=O)cc1
- Activity [1]: Non-Toxic
- inhibition in vivo at 3 mg/kg [2]: ≥ 60%
- Activity [3]: Active
- Activity [4]: Active
- Activity [5]: inactive
- Activity [6]: Active
- Activity [7]: Active
- Activity [8]: Active
- EC50 [9]: > 10 µM
- Activity [10]: Non-Toxic
